Laboratory results: patent publication US20240010606A1, “FUMARATE DERIVATIVES AND THEIR MEDICAL USE” (Sitryx Therapeutics Limited, priority 2020, published 2024)

Assays:
IL-1β = assay: THP-1 AlphaLISA IL-1β cytokine assay; format: cell-based; conditions: Homo sapiens, differentiated THP-1 cells
Procedure, shortened: (§1)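 THP-1 cells differentiated 72 h with PMA, pre-incubated 30 min with compounds, stimulated 24 h with LPS, then 1 h with nigericin, all at 37 °C. Supernatant cytokine measured by AlphaLISA; % inhibition normalised to ±LPS controls and IC50 taken from concentration-response curves.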

NRF2 = NRF2 activation assay (DiscoverX PathHunter NRF2 translocation kit, U2OS cells); format: cell-based
Procedure, shortened: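 PathHunter U2OS cells, grown 24 h at 37 °C/5% CO2, treated 6 h with compound; NRF2 nuclear translocation read as enzyme-fragment-complementation chemiluminescence. Activation normalised to dimethyl fumarate high and untreated low controls; EC50 from concentration-response curve.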

IL-6 = assay: THP-1 AlphaLISA IL-6 cytokine assay; format: cell-based; conditions: Homo sapiens, THP-1, differentiated THP-1 cells
Procedure, shortened: as §1

hepatocytes [1] = assay: Hepatocyte stability assay, mouse; format: in vitro ADME; conditions: 10 μM compound
Procedure, shortened: (§2)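 Cryopreserved hepatocytes (viability >70%) at 0.5×10^6 cells/mL in Leibovitz buffer, preincubated 10 min at 37 °C, then compound at 10 μM (0.1% DMSO) in duplicate; buffer-only incubations as control. Samples at 0-60 min quenched in acetonitrile, analysed by LC-MS/MS; half-life and CLint (μL min^−1 10^−6 cells) from ln % remaining versus time.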

[2] = Hepatocyte stability assay, mouse; format: in vitro ADME; conditions: mouse, cryopreserved hepatocytes, 10 μM compound
Procedure, shortened: as §2

hepatocytes [3] = assay: Hepatocyte stability assay, human; format: in vitro ADME; conditions: 10 μM compound
Procedure, shortened: as §2

[4] = Hepatocyte stability assay, human; format: in vitro ADME; conditions: cryopreserved hepatocytes, 10 μM compound
Procedure, shortened: as §2

[5] = +GSH, normalised to dimethyl fumarate high control, Table 3
[6] = −GSH, normalised to dimethyl fumarate high control, Table 3
[7] = Table 2, compounds of formula (II)
[8] = +GSH, Table 4, compounds of formula (II)
[9] = −GSH, Table 4, compounds of formula (II)

IC50 (IL-1β; LPS then Nigericin, Table 1)	EC50 (NRF2; +GSH, Table 3)	EC50 (NRF2; −GSH, Table 3)	IC50 (IL-6; LPS then Nigericin, Table 1)	CIint (hepatocytes [1]; Table 5)	half-life at 10 μM ([2]; Table 5, read-out: T½)	CIint (hepatocytes [3]; Table 5)	half-life at 10 μM ([4]; Table 5, read-out: T½)	SMILES	NRF2 activation Emax (NRF2; [5])	NRF2 activation Emax (NRF2; [6])	IC50 (IL-1β; [7])	EC50 (NRF2; [8])	NRF2 activation Emax (NRF2; [8])	EC50 (NRF2; [9])	NRF2 activation Emax (NRF2; [9])	IC50 (IL-6; [7])	CIint (hepatocytes [1]; Table 6)	half-life at 10 μM ([2]; Table 6, read-out: T½)	CIint (hepatocytes [3]; Table 6)	half-life at 10 μM ([4]; Table 6, read-out: T½)
< 2.5 µM	20 to 100 µM	< 2 µM	< 2.5 µM	+ (+ means >277)	< 5 min	+++ (+++ means 50-149)	5 to 29 min	O=C(O)CCOC(=O)/C=C/C(=O)OC1CCCCCCC1 [Example 3, (E)-3-((4-(Cyclooctyloxy)-4-oxobut-2-enoyl)oxy)propanoic acid]	++ (++ means 100-149)	++++ (++++ means 200-250%)										
								O=C(O)/C=C/C(=O)OC1(c2cccc(C(F)(F)F)c2)CCC1 [Intermediate 10, (E)-4-oxo-4-(1-(3-(trifluoromethyl)phenyl)cyclobutoxy)but-2-enoic acid]			6 to 30 µM	< 23 µM	+++ (+++ means >114-150%)	< 23 µM	+++ (+++ means >114-150%)	6 to 30 µM	++ (++ means >30-110)	30 to 100 min	++ (++ means >30-110)	5 to 29 min
9.3 to 14.3 µM	20 to 100 µM	2.1 to 6 µM	6.2 to 9.2 µM	++ (++ means 200-277)	5 to 10 min	++++ (++++ means <50)	30 to 100 min	O=C(O)COC(=O)/C=C/C(=O)OC1CCCCC1 [Example 2, (E)-2-((4-(cyclohexyloxy)-4-oxobut-2-enoyl)oxy)acetic acid]	+ (+ means >17.1-99)	++++ (++++ means 200-250%)										

SMILES	IC50 (IL-1β; LPS then Nigericin, Table 1)	EC50 (NRF2; +GSH, Table 3)	EC50 (NRF2; −GSH, Table 3)	IC50 (IL-6; LPS then Nigericin, Table 1)	CIint (hepatocytes [1]; Table 5)	half-life at 10 μM ([2]; Table 5, read-out: T½)	CIint (hepatocytes [3]; Table 5)	half-life at 10 μM ([4]; Table 5, read-out: T½)	NRF2 activation Emax (NRF2; [5])	NRF2 activation Emax (NRF2; [6])	IC50 (IL-1β; [7])	EC50 (NRF2; [8])	NRF2 activation Emax (NRF2; [8])	EC50 (NRF2; [9])	NRF2 activation Emax (NRF2; [9])	IC50 (IL-6; [7])	CIint (hepatocytes [1]; Table 6)	half-life at 10 μM ([2]; Table 6, read-out: T½)	CIint (hepatocytes [3]; Table 6)	half-life at 10 μM ([4]; Table 6, read-out: T½)
O=C(O)COC(=O)/C=C/C(=O)OC1(c2ccc(C(F)(F)F)cc2)CCC1 [Example 15, (E)-2-((4-oxo-4-(1-(4-(trifluoromethyl)phenyl)cyclobutoxy)but-2-enoyl)oxy) acetic acid]	< 2.5 µM	> 100 µM	2.1 to 6 µM	2.5 to 6.1 µM	+ (+ means >277)	< 5 min	+++ (+++ means 50-149)	5 to 29 min	+ (+ means >17.1-99)	+++ (+++ means 150-199%)										
